Reference: patent US4614827A, “Method for isolating vinyl salt compounds from aqueous solutions” (Rohm GmbH, priority 1983, dated 1986)

Assay: Water solubility at 20° C.
Source text: Of special interest are the salts of acrylic and methacrylic acid and also of maleic acid, fumaric acid, and itaconic acid, and more particularly the alkali metal salts, and especially the sodium, potassium, and lithium salts; the alkaline earth metal salts, and especially the magnesium, calcium, strontium, and barium salts; the salts of subgroups I and II of the periodic table, and especially the copper and zinc salts; the salts of main and subgroup IV (Ge, Sn, Pb, Ti, Zr, Hf), and especially the germanium, tin, lead, titanium, and zirconium salts; the salts of subgroup VIII (Fe, Ru, Os, Co, Rh, Ir, Ni, Pd, Pt), and especially the iron, cobalt, and nickel salts; the salts of main and subgroups V ((As, Sb, Bi, V, Nb, Ta) and of subgroup VII (Mn, Tc, Re), and especially the antimony, bismuth, vanadium, and manganese salts; and the ammonium salts, including those derived from ammonium cations of the formula [drawing 1] wherein R1 and R2 are hydrogen or an alkyl group having from 1 to 18 carbon atoms, and preferably from 1 to 5 carbon atoms, and R3 and R4 are hydrogen or an alkyl group having from 1 to 18 carbon atoms, and preferably from 1 to 6 carbon atoms, or wherein R3 and R4, optionally with inclusion of one or two further hetero atoms such as nitrogen, oxygen, or sulfur, form a five- or six-membered heterocyclic system.

Row | Structure (SMILES) | Water solubility at 20° C. [g/salt/100 g water]
1 | C=C(C)C(=O)O [Barium dimethacrylate] | 40.5
2 | C=C(C)C(=O)[O-].[Li+] [Lithium methacrylate] | 87.5
3 | C=C(C)C(=O)[O-].[K+] [Potassium methacrylate] | 101.8
4 | C=C(C)C(=O)[O-].[Na+] [Sodium methacrylate] | 95.3
5 | C=C(C)C(=O)O [Strontium dimethacrylate] | 27.5

Assay: Water solubility of spray dried product (qualitative)
Format: physicochemical
Source text: Clear beads, some of them vitrified, were obtained. The major portion of these ranged in size from 10 to 20 microns; the largest particles were about 80 microns. The residual moisture of the spray dried material ranged from 0.35 to 0.55 percent and the bulk density from 540 to 600 grams/liter. Higher bulk densities can be obtained by increasing the operating temperature. Because of the good water solubility of the products being dried, the spray drying apparatus can be cleaned quite easily.
Clear beads in the range of 10 to 100 microns are obtained. The residual moisture of the spray dried material is less than 0.3%.

Row | Structure (SMILES) | water solubility (in words)
6 | C=C(C)C(=O)[O-].[Na+] [Sodium methacrylate] | readily water soluble
